This is an account of results in PubChem BioAssay AID179 (DTP/NCI, 2004).

The test has as its system CEM cells HIV-1 protection, formazan growth assay. The experiment in a line: NCI AIDS Antiviral Assay. The settings on record: for IC50: measured here: growth of uninfected CEM cells. The essentials: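 Soluble formazan readout of cell growth; CEM cells ± HIV-1; 5 drug concs. ≥50% protection → retest; ≥50% again = moderately active; reproducible 100% = confirmed active.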

SMILES strings stand for the structures. The source made the active and inactive calls.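 How the source made its calls: active means compounds giving half or more protection of infected cells from virus-caused growth loss, again on retest; inactive means the rest.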 A value given as a limit tells only on which side of the number the result lay.

With `COc1nc2c(nnn2C2OCC(O)C(O)C2O)c(=O)n1C` (stereo not drawn), the result was inactive.
With `Cc1cn(C2COC(C)(CO)O2)c(=O)[nH]c1=O` (stereo not drawn), the EC50 was more than 200 µM and the IC50 was more than 200 µM.
As to `N#C/C(=C\c1ccc(O)cc1)c1ccc([N+](=O)[O-])cc1`, the EC50 was more than 200 µM and the IC50 turned out to be 174 µM.
In the same order, the values of `NC(=O)c1ccc[n+](C2=C([O-])c3ccccc3C(=O)/C2=N\S(=O)(=O)c2ccccc2)c1` are more than 200 µM and 11.2 µM.
As to `N#CC1C(=N)Cc2ccccc2-c2ccccc21` (stereo not drawn), the EC50 is more than 200 µM and the IC50 turned out to be 1.55 µM.
In the same order, the values of `CC(=O)C1(Cc2cccc3ccccc23)S(=O)(=O)OCCOS1(=O)=O` are more than 200 µM and 110 µM.
With `c1ccc(CN2COc3ccc4c5c(ccc4c3C2)OCN(Cc2ccccc2)C5)cc1`, the EC50 was more than 2.45 µM and the IC50 is more than 2.45 µM.
For `COc1ccc(NS(=O)CCc2ccccc2)cc1` (stereo not drawn), the EC50 was more than 200 µM and the IC50 turned out to be 22.9 µM.
For the compound `C=C1C2CCCC1C1(S(C)(=O)=O)CCCCC21O` (stereo not drawn), the result was inactive.
Still for that read-out and setting: as for `Nc1nc(Cl)cc(NCCCCCNc2cc(Cl)nc(N)n2)n1`, the entry is “inactive”.
On to `Cn1nc2n(c1=O)CCCN2`, for which the EC50 is more than 200 µM and the IC50 is more than 200 µM.
As to `CC12CCC(=O)[C@@]1(C)CCCC2O` (stereo partly drawn), the outcome was inactive.
For `CC1=C[P+](CCc2ccccc2)(CCc2ccccc2)C=C1C`, the outcome was inactive.
Regarding `CN(C)CCC=C1c2ccccc2C(C)(C)c2ccccc21`, the EC50 is more than 141 µM and the IC50 is 25.1 µM.
Take `COc1nc(N=[N+]=[N-])nc(-c2c(OC)ccc3ccccc23)n1`: the EC50 was more than 200 µM and the IC50 came out at 47.9 µM.
`O=S(O)Cc1ccccc1CSSSCc1ccccc1CS(=O)O`: the EC50 is more than 200 µM and the IC50 stood at 102 µM.
For `CCCc1cc(=O)oc2c3c(c4c(c12)OC(C)(C)C=C4)O[C@H](C)[C@@H](C)C3O` (stereo partly drawn) the same measures were 2.4 µM and 11.7 µM.
Regarding `O=C(Cc1ccccc1)NCCCN(CCCCN(CCCNC(=O)Cc1ccccc1)C(=O)OCc1ccccc1)C(=O)OCc1ccccc1`, the result was inactive.
As for `CC(C)CCCC(C)[C@H]1CC[C@@H]2[C@H]3CC[C@H]4C[C@@H](CCC=C(c5cc(Cl)c(OCc6ccc(C(=O)O)cc6)c(C(=O)O)c5)c5cc(Cl)c(OCc6ccc(C(=O)O)cc6)c(C(=O)O)c5)CC[C@]4(C)[C@@H]3CC[C@]12C` (stereo partly drawn), the EC50 is 4.17 µM and the IC50 was 112 µM.
Regarding `Nn1nc2ccccc2n1`, the EC50 is more than 1860 µM and the half-inhibitory concentration (IC50) was more than 1860 µM.
Take `CC(C)N=C(N)NC#N`: the EC50 was more than 1480 µM and the IC50 was more than 1480 µM.
Consider `C=C=[CH][Sn]([c]1ccccc1)([c]1ccccc1)[c]1ccccc1`, for which the EC50 is more than 35.5 µM and the IC50 turned out to be 0.676 µM.
Take `Cc1cc(S(=O)(=O)Nc2cc(N)[nH]n2)c(SCc2nc(N)nc(N(C)C)n2)cc1Cl`: the EC50 is more than 200 µM and the IC50 was more than 200 µM.
As to `CCOC(=O)NC(Nc1ccc(F)c(F)c1)(C(=O)OCC)C(F)(F)F` (stereo not drawn), the EC50 is more than 200 µM and the IC50 is more than 200 µM.
For `CCCCCCCCCCCCCC/C=C\C(CC(=O)O)C(=O)O` (stereo not drawn), the EC50 is more than 15.1 µM and the IC50 is more than 15.1 µM.
As for `CC(C)NC(=O)OCc1c(COC(=O)NC(C)C)c(-c2ccc(Cl)c(Cl)c2)n2c1CS(=O)(=O)C2`, the EC50 is more than 200 µM and the IC50 came to 42.7 µM.
In the same order, the values of `CCOP(=O)(OCC)/C(C#N)=C/c1cccs1` are 77.6 µM and 724 µM.
For `[N-]=[N+]=CC(=O)C1CCCN1C(=O)c1ccccc1` (stereo not drawn) the same measures were more than 200 µM and more than 200 µM.
In the same order, the values of `O=C(/C=C/c1ccccc1)c1ccc(Cl)s1` are more than 200 µM and 12.3 µM.
With `O=C(O)c1cccc(SS(=O)(=O)c2cccc(C(=O)O)c2)c1`, the EC50 was 27.5 µM and the IC50 came out at 162 µM.
Consider `O=C1OCc2c1[nH]c(=O)[nH]c2=O`, for which the EC50 was more than 200 µM and the IC50 was more than 200 µM.
Consider `COc1ccc(N2CC(=O)N(C(=O)COc3ccc(OCC(=O)N4C(=O)CN(c5ccc(OC)cc5)C4=S)cc3)C2=S)cc1`, for which the EC50 is more than 200 µM and the IC50 was 87.1 µM.
For `Cc1cc2ncc3c(=O)n(NS(=O)(=O)c4ccc(N)cc4)ccc3n2n1` the same measures were more than 200 µM and more than 200 µM.
For `O=S(=O)(/C=N\N=P(c1ccccc1)(c1ccccc1)c1ccccc1)c1ccccc1-c1ccccc1` the same measures were more than 200 µM and 107 µM.
With `CC1=CCC23C(C1)OC(Br)(C=CC2(C)O)C3(C)C` (stereo not drawn), the outcome was inactive.
For `CN(C)CCN1C(=O)C2(C)C3CCC(O3)C2(C)C1=O` (stereo not drawn), the EC50 was 141 µM and the IC50 is 170 µM.
In the same order, the values of `COc1ccc(C(=CCC[C@H]2CC[C@@]3(C)[C@@H](CC[C@@H]4[C@@H]3CC[C@]3(C)[C@@H](C(C)CCCC(C)C)CC[C@@H]43)C2)c2ccc(OC)c(C(=O)O)c2)cc1C(=O)O` (stereo partly drawn) are more than 200 µM and more than 200 µM.
In the same order, the values of `CSc1n[nH]c2n[nH]c(C)c12` are more than 200 µM and 105 µM.
With `Cc1ccc(O)c(N=O)c1.[Cu+2]`, the EC50 is more than 200 µM and the IC50 stood at 2.63 µM.
In the same order, the values of `Cc1ccc(NC(=O)C(=O)Cc2cccc[n+]2[O-])cc1C` are more than 91.2 µM and more than 91.2 µM.
For `CCCCc1ccc(N2C(=O)c3cc([N+](=O)[O-])cnc3S2(=O)=O)cc1` the same measures were more than 2 µM and 0.479 µM.
For the compound `CCOC(=O)C/C(C)=N\NC(=O)c1ccncc1`, the EC50 is more than 200 µM and the IC50 is more than 200 µM.
As to `CO[C@@H]1C2C3c4ccccc4C(c4ccccc43)C2[C@H](OC)[C@H]2OC(c3ccccc3)O[C@H]21` (stereo partly drawn), the EC50 is more than 67.6 µM and the IC50 was more than 67.6 µM.
Take `CC12CCC(C(Nc3ccccn3)C1=O)C2(C)C` (stereo not drawn): the result was inactive.
Take `N#Cc1c2c(cn3c1nc1ccccc13)CCCC2`: the EC50 is more than 200 µM and the IC50 came out at 107 µM.
For `Cc1cc(N(C)C)c(C=O)c(C)c1C=O` the same measures were more than 1230 µM and 93.3 µM.
In the same order, the values of `Cc1ccc(S(=O)(=O)N/N=C2\CC3C4CCC3C2C4)cc1` (stereo not drawn) are more than 200 µM and more than 200 µM.
For `CCCCc1c2c(nc3c1CCC/C3=C\c1ccccc1)C(=O)C(CN(C)C)CC2` (stereo not drawn) the same measures were more than 9.33 µM and more than 9.33 µM.
With `Cc1cc(Cc2c(F)c(F)c(Cc3cc(C)no3)c(F)c2F)on1`, the EC50 was more than 100 µM and the concentration for half-maximal inhibition (IC50) was more than 100 µM.
Regarding `O=C1OI(C#Cc2ccccc2)c2ccccc21`, the EC50 was more than 20 µM and the IC50 amounted to 3.31 µM.
In the same order, the values of `O=c1[nH]c(=O)n([C@H]2C[C@@H](CO)[C@@H](O)C2)cc1I` are more than 708 µM and more than 708 µM.
In the same order, the values of `CCn1c(SCC(=O)NNC(=S)Nc2ccc(C)cc2)nc2ccccc2c1=O` are more than 200 µM and 105 µM.
For the compound `CCOc1ccc(/C=C2/C(=O)N=C(NC(C)=O)N2C)cc1`, the EC50 is more than 200 µM and the IC50 is more than 200 µM.
